In this experiment the target is T1, human M5 mAChR (Homo sapiens, UniProt P08912).
T1 sequence (P08912 1-532): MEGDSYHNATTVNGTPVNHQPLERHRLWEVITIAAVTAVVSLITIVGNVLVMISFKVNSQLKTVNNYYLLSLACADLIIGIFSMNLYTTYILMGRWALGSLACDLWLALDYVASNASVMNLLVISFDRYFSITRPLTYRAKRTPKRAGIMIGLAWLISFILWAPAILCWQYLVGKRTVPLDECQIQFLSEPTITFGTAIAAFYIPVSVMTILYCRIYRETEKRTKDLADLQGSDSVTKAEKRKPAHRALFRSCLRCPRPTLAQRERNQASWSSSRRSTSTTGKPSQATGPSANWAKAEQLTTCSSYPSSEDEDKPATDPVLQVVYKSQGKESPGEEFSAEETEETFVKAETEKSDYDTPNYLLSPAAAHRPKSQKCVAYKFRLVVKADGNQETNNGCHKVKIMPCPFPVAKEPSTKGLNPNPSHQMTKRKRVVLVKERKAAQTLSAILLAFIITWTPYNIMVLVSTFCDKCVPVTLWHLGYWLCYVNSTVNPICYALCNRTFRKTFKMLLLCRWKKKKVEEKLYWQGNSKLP
As to the kind of experiment: hM5 functional inhibition assay. The class given is cell-based. The following applies: for hM5 Percent inhibition (Table 3): single point at 10 μM, EC80 of ACh, average of three determinations.

SMILES strings stand for the structures. Read-outs that look alike come from different tables or passages of the source.

The inhibition is the share of the control response that was lost under treatment.

For the compound `Cc1nn(C)cc1S(=O)(=O)N1CCC2(CC1)OCCS2` [Compound 9b], the “hM5 Percent inhibition (Table 3)” value is “Inactive”.

As for `Cc1nn(C)c(C)c1S(=O)(=O)N1CCC2(CC1)OCCS2` [Compound 4, 8-((1,3,5-trimethyl-1H-pyrazol-4-yl)sulfonyl)-1-oxa-4-thia-8-azaspiro[4,5]decane], the inhibition at 10 µM turned out to be 84% (read-out: hM5 Percent inhibition (Table 2)); 88% (read-out: hM5 Percent inhibition (Table 3)); 50% (read-out: maximum M5 inhibition, single point M5 inhibition assay). For the same compound, where the note is “resynthesized 4, 10 μM”, the “activity in the 10 μM single point assay” value turned out to be 88%.

For the compound `Cn1cnc(S(=O)(=O)N2CCC3(CC2)OCCS3)c1` [Compound 9h], the “hM5 Percent inhibition (Table 3)” value is on record as “Inactive”.
